Test results reported in the NIST ThermoML archive (doi:10.1021/acs.jced.7b00106).

Settings: Liquid, Hot wire method

FC(F)(F)/C=C/Cl [(E)-1-chloro-3,3,3-trifluoroprop-1-ene]
Settings	thermal conductivity [W/m/K]
203.56 K, 10316 kPa	0.1156
203.65 K, 10337 kPa	0.1151
203.67 K, 219 kPa	0.1135
203.67 K, 10365 kPa	0.116
203.68 K, 5190 kPa	0.1132
203.68 K, 10370 kPa	0.1166
203.76 K, 231 kPa	0.113
203.76 K, 10344 kPa	0.1159
203.77 K, 5194 kPa	0.1133
203.77 K, 10372 kPa	0.1156
203.91 K, 10339 kPa	0.1163
204.02 K, 228 kPa	0.1135
204.02 K, 5185 kPa	0.114
204.02 K, 10301 kPa	0.1153
204.02 K, 10366 kPa	0.1154
204.02 K, 10378 kPa	0.1158
204.12 K, 10382 kPa	0.1152
204.13 K, 232 kPa	0.1125
204.13 K, 5176 kPa	0.1137
204.13 K, 10374 kPa	0.1153
204.3 K, 10296 kPa	0.1148
204.4 K, 223 kPa	0.1124
204.4 K, 5171 kPa	0.1142
204.4 K, 10360 kPa	0.1158
204.41 K, 10375 kPa	0.1154
204.43 K, 10300 kPa	0.1153
204.53 K, 10368 kPa	0.1152
204.54 K, 5176 kPa	0.1138
204.54 K, 10353 kPa	0.115
204.55 K, 227 kPa	0.1121
204.71 K, 10305 kPa	0.115
204.81 K, 10351 kPa	0.1146
204.81 K, 10361 kPa	0.1153
204.82 K, 232 kPa	0.1125
204.82 K, 5179 kPa	0.1141
204.88 K, 10317 kPa	0.1155
204.97 K, 10365 kPa	0.1148
204.98 K, 5182 kPa	0.1135
204.98 K, 10343 kPa	0.1151
204.99 K, 223 kPa	0.1121
205.17 K, 10310 kPa	0.1155
205.25 K, 10392 kPa	0.1152
205.26 K, 10349 kPa	0.1152
205.27 K, 5170 kPa	0.1139
205.29 K, 230 kPa	0.1124
205.36 K, 10304 kPa	0.1149
205.44 K, 10383 kPa	0.1147
205.45 K, 10380 kPa	0.1147
205.46 K, 5164 kPa	0.1134
205.48 K, 239 kPa	0.1121
222.19 K, 65394 kPa	0.1242
222.21 K, 54365 kPa	0.1216
222.27 K, 44671 kPa	0.1193
222.28 K, 65396 kPa	0.1238
222.3 K, 35555 kPa	0.1171
222.32 K, 26424 kPa	0.1148
222.32 K, 54366 kPa	0.1215
222.35 K, 17783 kPa	0.1123
222.37 K, 44672 kPa	0.1196
222.39 K, 449 kPa	0.1078
222.39 K, 8723 kPa	0.1103
222.4 K, 35559 kPa	0.1171
222.42 K, 26428 kPa	0.1148
222.45 K, 17781 kPa	0.1124
222.49 K, 8727 kPa	0.1099
222.5 K, 449 kPa	0.1068
222.54 K, 65394 kPa	0.1248
222.57 K, 54367 kPa	0.1222
222.62 K, 44672 kPa	0.1196
222.67 K, 35561 kPa	0.1177
222.69 K, 54366 kPa	0.1219
222.7 K, 26430 kPa	0.1145
222.73 K, 17781 kPa	0.1124
222.75 K, 44676 kPa	0.1192
222.77 K, 8729 kPa	0.1105
222.79 K, 453 kPa	0.107
222.79 K, 26430 kPa	0.1147
222.79 K, 35560 kPa	0.1173
222.86 K, 17785 kPa	0.112
222.91 K, 8723 kPa	0.1098
222.91 K, 65386 kPa	0.1248
222.92 K, 456 kPa	0.1067
222.97 K, 54368 kPa	0.122
223.03 K, 44680 kPa	0.1196
223.06 K, 65383 kPa	0.1239
223.07 K, 35560 kPa	0.1178
223.11 K, 26433 kPa	0.1152
223.11 K, 54368 kPa	0.122
223.14 K, 17782 kPa	0.1124
223.17 K, 44685 kPa	0.1194
223.21 K, 8729 kPa	0.1098
223.22 K, 35566 kPa	0.1174
223.23 K, 454 kPa	0.1071
223.26 K, 26433 kPa	0.1147
223.3 K, 17785 kPa	0.112
223.34 K, 65385 kPa	0.1243
223.36 K, 8728 kPa	0.1097
223.39 K, 453 kPa	0.1069
223.39 K, 54369 kPa	0.1224
223.46 K, 44687 kPa	0.1198
223.5 K, 65379 kPa	0.1241
223.51 K, 35560 kPa	0.1174
223.56 K, 26434 kPa	0.1151
223.56 K, 54369 kPa	0.1215
223.6 K, 17788 kPa	0.1125
223.63 K, 44686 kPa	0.1196
223.67 K, 8730 kPa	0.1101
223.68 K, 35563 kPa	0.1172
223.71 K, 455 kPa	0.1073
223.73 K, 26431 kPa	0.1148
223.78 K, 17788 kPa	0.1121
223.79 K, 65376 kPa	0.1246
223.85 K, 54372 kPa	0.122
223.86 K, 8734 kPa	0.1093
223.89 K, 457 kPa	0.1068
223.93 K, 44690 kPa	0.1197
223.98 K, 35565 kPa	0.1178
223.98 K, 65378 kPa	0.124
224.04 K, 26437 kPa	0.1151
224.05 K, 54371 kPa	0.1216
224.1 K, 17783 kPa	0.1124
224.13 K, 44694 kPa	0.1195
224.18 K, 8734 kPa	0.1094
224.19 K, 35567 kPa	0.1173
224.23 K, 457 kPa	0.107
224.25 K, 26439 kPa	0.1146
224.31 K, 17787 kPa	0.1119
224.39 K, 8734 kPa	0.1092
224.45 K, 456 kPa	0.1066
241.66 K, 13434 kPa	0.1054
241.67 K, 7098 kPa	0.1036
241.69 K, 586 kPa	0.1011
241.75 K, 13448 kPa	0.1051
241.78 K, 7107 kPa	0.1033
241.79 K, 578 kPa	0.1008
241.92 K, 53262 kPa	0.1169
241.93 K, 63858 kPa	0.1199
241.94 K, 36063 kPa	0.1121
241.94 K, 43857 kPa	0.1153
241.99 K, 28061 kPa	0.1109
242.03 K, 20422 kPa	0.1077
242.03 K, 53260 kPa	0.1171
242.03 K, 63849 kPa	0.1192
242.04 K, 43848 kPa	0.114
